Assay results published in patent EP1862466A2, “Arrays with cleavable linkers” (THE SCRIPPS RESEARCH INSTITUTE, priority 2004, dated 2006).

Experiments:
β3GlcNAcT = β3GlcNAcT acceptor specificity (relative enzyme activity); format: biochemical, N. meningitidis; conditions: substance used as acceptor substrate; Galβ(1-4)Glc = 100
Text: The inventors have previously cloned and characterized the bacterial N. meningitidis enzymes β4GalT-GalE and β3GlcNAcT. Blixt, O.;Brown, J.;Schur, M.;Wakarchuk, W. and Paulson, J. C., J. Org. Chem. 2001, 66, 2442-2448; Blixt, O.;van Die, I.;Norberg, T. and van den Eijnden, D. H., Glycobiol. 1999, 9, 1061-1071. β4GalT-GalE is a fusion protein constructed from β4GalT and the uridine-5'-diphospho-galactose-4'-epimerase (GalE) for in situ conversion of inexpensive UDP-glucose to UDP-galactose providing a cost efficient strategy.
Both enzymes, β4GalT-GalE and β3GlcNAcT, were over expressed in E. coli AD202 in a large-scale fermentor (100 L). Bacteria were cultured in 2YT medium and induced with iso-propyl-thiogalactopyranoside (IPTG) to ultimately produce 8-10 g of bacterial cell paste / L cell media. The enzymes were then released from the cells by a microfluidizer and were solubilized in Tris buffer (25 mM, pH 7.5) containing manganese chloride (10 mM) and Triton X (0.25%) to reach enzymatic activities of about 50 U/L and 115 U/L of cell culture β4GalT-GalE and β3GlcNAcT, respectively.
The structures of these disaccharides are provided below. [drawing 23] [drawing 24] [drawing 25] [drawing 26]
Adding the hydrophobic para-nitrophenyl ring as an aglycon to the reducing end of the acceptors enhanced the activity of the enzyme up to 10 fold (compare 4 with 5 and 6 with 7). The increase in the enzyme activity by adding a hydrophobic aglycon to the acceptor sugar, though to the lesser extent, has also been shown for β4GalT (compare 12 with 13,14). The relaxed substrate specificity of these enzymes makes them very useful for preparative synthesis of various carbohydrate structures, including poly-N-acetyllactosamines. Table 4. Selected β4GalT-GalE and β3GlcNAcT Specificity Data

2G12 antibody [1] = experiment: Carbohydrate microarray analysis, microtiter-based, Scatchard plot (Kd); format: binding, human; conditions: for Kd: oligomannose immobilized as azide derivative on cleavable linker in microtiter plate, fluorescent secondary antibody
Procedure: Carbohydrate microarray analysis. Ninety-six well NHS-coated microtiter plates (NoAb Biodiscoveries) were treated with 200 µL of a 1 mM methanolic solution of the amino-functionalized disulfide and alkyne containing linker (scheme V) containing 5 % diisopropylethylamine (DIEA) and incubated overnight at 4°C. The microtiter plate was then washed with 2 x 200 µL methanol and 2 x 200 µL water. Next, 200 µL solutions of azido-functionalized oligomannose derivatives 21-25 at varying concentrations from 0 to 500 µM in 5 % DIEA / methanol were introduced. A sprinkle of copper (I) iodide was added and the contents were allowed to react overnight at 4°C. The next day, the contents were removed and the plates were washed with 2 x 200 µL methanol and 2 x 200 µL water. The plates were then blocked with 0.1 % Tween20 solution in HEPES buffer pH 7.5 at 4 °C for 1 hour and then washed with 3 x 200 µL HEPES buffer. Next, 200 µL of a 1 µg/mL solution of 2G12 antibody in 0.1 % Tween20 / PBS buffer was added to the wells for a 1 hour incubation at 4 °C and then washed with 2 x 200 µL PBS buffer. At this point, 200 µL of FITC-tagged goat anti-human IgG antibody (10 µg/mL in PBS, Cal Biochem) was added for 1 hour at 4 °C, and the wells were then washed with 2 x 200 µL PBS buffer. Detection of the FITC-tagged secondary antibody was performed in 200 µL water using a fluorescence plate reader. The resulting data yielded the oligomannose-2G12 binding isotherms and Scatchard plot analysis was implemented in the determination of dissociation constants. Adams et al. (2004) Chem. Biol. 11: 875-81.
Overall, many of the oligomannose derivatives can compete for binding of Man9GlcNAc2, and, therefore, may serve as building blocks for potential immunogens to elicit 2G12-like antibodies. Carbohydrate Microarray Analysis. Previous studies by the inventors using covalent microtiter plates with a panel of carbohydrate epitopes for interaction with 2G12 involved converting the amine-containing oligomannoses 4, 5, 7, 8 and 9 to the corresponding azide derivatives 21, 22, 23, 24 and 25. These derivatives were then covalently attached to a microplate-immobilized cleavable linker via the Cu (I)-catalyzed 1,3-dipolar cycloaddition reaction (FIG. 11B). Kd values for the interaction of 2G12 with oligomannoses 4, 5, 7, 8, 9 (Table 9) were determined using a microtiter-based assay with detection via a fluorescent secondary antibody (see Bryan et al.(2004) J. Am. Chem. Soc. 126, 8640-41). Table 9: The Kd values of oligomannoses 1 and 4, 5, 7, 8, 9 binding to 2G12, as determined by carbohydrate microarray analysis.

2G12 anti-HIV antibody = experiment: 2G12 binding to glycan array printed on glass slide; design: species or system human; conditions: for Rel. spec. (relative binding activity of 2G12): glass-slide glycan array, 2G12 pre-complexed with secondary anti-IgG-FITC; for binding of 2G12 antibodies (in words): glycan array, initial experiments
Procedure: Construction of a glycan array printed on a glass slide: The library of carbohydrate structures was obtained through chemical and chemo-enzymatic synthesis as described above, as well as natural sources. This compound library contained a N-hydroxy succinimide (NHS)-reactive primary amino group, which was printed on a commercial NHS-activated glass surface (Accelr8 Technology Corporation, Denver, CO) using a microarray gene printer (TSRI).
Each glycan type was printed (≈0.5nL/spot) at various concentrations (10-100 µM) and each concentration in a replicate of six. Slides were further incubated with ethanolamine buffer to deactivate remaining NHS functional groups.
The 2G12 antibody was pre-complexed (for 10 min) with secondary human anti-IgG-FITC (2:1, 20µg/mL) prior to application to the glycan array. After incubation with the 2G12 antibodies, the array was washed by dipping the slide in buffer and water.

2G12 antibody [2] = experiment: 2G12 binding study on cleavable linker glycan array in microtiter plates (Kd); design: species or system human; conditions: binding to 2G12 antibody
Procedure: Cleavable Linker Glycan Array in Microtiter Plates: Further experiments were performed using glycans immobilized within microtiter wells with the cleavable triazole linkers described in Example 7 as shown in FIG. 11.
2G12 Binding: After washing with QH2O, wells were blocked with 10 mM HEPES buffer, pH 7.5/150 mM NaCl buffer (200 µL) containing 0.1% Tween-20 over 1 h at 4 °C. The buffer was then removed and 2G12 (17 µg/mL PBS buffer; 200 µL) was incubated in the well over 1 h at 4°C. Wells were then washed with PBS buffer (3×; 200 µL) and fluorescein-conjugated Goat Anti-Human IgG antibody (14 µg/mL PBS buffer; 200 µL) was incubated in the well over 1 h in the dark at 4 °C. Wells were then washed with PBS buffer (3×; 200 µL) and fluorescence was measured with an excitation wavelength of 485 nm and emission wavelength of 535 nm.
Further studies were performed using a cleavable linker array to clarify the types of mannose-containing glycans bound by the 2G12 anti-HIV antibodies. […] The results of a binding study using increasing amounts of labeled Manα1,2Manα1,3Manα1,2 Manα1,6Man glycan with a constant amount of 2G12 antibody are shown in FIG. 16.

## OC[C@H]1O[C@@H](O[C@H]2[C@H](O)[C@@H](O)[C@H](O)O[C@@H]2CO)[C@H](O)[C@@H](O)[C@H]1O [Acceptor 4, Galβ(1-4)Glc, reference compound]
β3GlcNAcT
  Relative enzyme activity (%) β(1-3)GlcNAcT-activity: 100%

## OCC1O[C@@H](O)C(O)[C@@H](O)[C@@H]1O[C@@H]1OC(CO)[C@H](O)[C@H](O)C1O (stereo partly shown) [Compound 4]
β3GlcNAcT
  Relative enzyme activity (%) β(1-3)GlcNAcT-activity: 100%
2G12 antibody [1]
  Kd: 100 nM

## O=[N+]([O-])c1ccc(O[C@@H]2OC(CO)[C@@H](O[C@@H]3OC(CO)[C@H](O)[C@H](O)C3O)[C@H](O)C2O)cc1 (stereo partly shown) [Compound 5]
β3GlcNAcT
  Relative enzyme activity (%) β(1-3)GlcNAcT-activity: 945%
2G12 antibody [1]
  Kd: 100 nM

## CC(=O)N[C@H]1C(O)O[C@H](CO)[C@@H](O[C@@H]2O[C@H](CO)[C@H](O)[C@H](O)[C@H]2O)[C@@H]1O (stereo partly shown) [Compound 6]
β3GlcNAcT
  Relative enzyme activity (%) β(1-3)GlcNAcT-activity: 7%

## NCCCO[C@H]1O[C@H](CO)[C@@H](O)[C@H](O[C@H]2O[C@H](CO)[C@@H](O)[C@H](O)[C@@H]2O[C@H]2O[C@H](CO)[C@@H](O)[C@H](O)[C@@H]2O[C@H]2O[C@H](CO)[C@@H](O)[C@H](O)[C@@H]2O)[C@@H]1O [Glycan 135]
2G12 anti-HIV antibody
  Rel. spec. (relative binding activity of 2G12): +++ (+++ >25,000)

## NCCCO[C@H]1O[C@H](CO[C@H]2O[C@H](CO)[C@@H](O)[C@H](O)[C@@H]2O[C@H]2O[C@H](CO)[C@@H](O)[C@H](O)[C@@H]2O)[C@@H](O)[C@H](O[C@H]2O[C@H](CO)[C@@H](O)[C@H](O)[C@@H]2O[C@H]2O[C@H](CO)[C@@H](O)[C@H](O)[C@@H]2O)[C@@H]1O [Glycan 136]
2G12 anti-HIV antibody
  Rel. spec. (relative binding activity of 2G12): +++ (+++ >25,000)

## NCCCO[C@H]1O[C@H](CO[C@H]2O[C@H](CO)[C@@H](O)[C@H](O)[C@@H]2O[C@H]2O[C@H](CO)[C@@H](O)[C@H](O)[C@@H]2O[C@H]2O[C@H](CO)[C@@H](O)[C@H](O)[C@@H]2O)[C@@H](O)[C@H](O[C@H]2O[C@H](CO)[C@@H](O)[C@H](O)[C@@H]2O)[C@@H]1O [Glycan 138]
2G12 anti-HIV antibody
  Rel. spec. (relative binding activity of 2G12): +++ (+++ >25,000)

## NCCCCCO[C@H]1O[C@H](CO)[C@@H](O)[C@H](O[C@H]2O[C@H](CO)[C@@H](O)[C@H](O)[C@@H]2O[C@H]2O[C@H](CO)[C@@H](O)[C@H](O)[C@@H]2O[C@H]2O[C@H](CO)[C@@H](O)[C@H](O)[C@@H]2O)[C@@H]1O [Oligomannose 4]
2G12 antibody [1]; microtiter plate array
  affinity for 2G12 antibodies (in words): greatest affinity

## Galβ(1-4)GlcNAc [Acceptor 6, reference compound]
β3GlcNAcT
  Relative enzyme activity (%) β(1-3)GlcNAcT-activity: 7-8%

## Man-8#aa Man8-aminoacid [Glycan 144]
2G12 anti-HIV antibody
  binding of 2G12 antibodies (in words): Binding was observed

## Man-9#aa Man9-aminoacid [Glycan 145]
2G12 anti-HIV antibody
  binding of 2G12 antibodies (in words): smaller level of binding

## Manα1,2Manα1,2Manα1,3(Manα1,2Man1,2Man1.6)Man
2G12 antibody [2]
  Kd: 700 nM

## Manα1,2Manα1,3Manα1,2 Manα1,6Man
2G12 antibody [2]
  Kd: 100 nM

## Manα 1,2Manα1 ,2Manα1 1,3(Manα1,2Man1,3 (Manα1.2Manα1 ,2Manα 1.6) )Man
2G12 antibody [2]
  Kd: 1000 nM
